Test results reported in patent US11993660B2, “Chimeric polypeptides and methods of altering the membrane localization of the same” (Cell Design Labs, Inc., priority 2017, dated 2024).

System: Primary human T cells expressing FMC63-CAR with ERa LBD fusion
Assay: Brefeldin A block of ligand-induced surface trafficking
Assay type: cell-based
Conditions: 1 uM pre-treatment; then 500 ng/mL 4-OHT two hours
Protocol: Primary human T cells expressing FMC63-CAR with ERa LBD fusion were left untreated or were treated with 500 ng/mL 4-OHT ligand for two hours to induce surface expression of the CAR. Prior to 4-OHT treatment, half the cells were pre-treated with 1 uM Brefeldin A (FIG. 12, bottom two panels) to inhibit protein export from the Golgi.

Question: C[C@H]1CCC/C=C/[C@@H]2C[C@H](O)C[C@H]2[C@H](O)/C=C/C(=O)O1 [Brefeldin A] was tested. Which “effect on 4-OHT-induced surface protein expression” value did it give?
Answer: The value was “prevented 4-OHT-induced increase in surface protein expression”.
